In paper PMC4683533, “Discovery of novel INK4C small-molecule inhibitors to promote human and murine hematopoietic stem cell ex vivo expansion” (Scientific Reports, 2015):

Assays:
[1] = tested on: HSCs (CD34−LKS cells); assay: single hematopoietic stem cell in vitro culture (nmEM colony) assay; type: cell-based, mouse; settings: 12.5 nM, 14-day treatment
Description: We biologically assessed the 22 putative p18SMI compounds for their ability to maintain HSCs stem cell characteristics, to be specific self-renewal and multi-lineage differentiation, using single cell cultures. […] Thus, we employed single HSC culture to assess p18SMI compounds’ effect upon HSCs. CD34^−LKS cells from C57BL/6 mice were individually deposited into a 96-well plate (one cell/well). The single cell was cultured for 14 days in 100 μL of serum-free medium (Gibco) containing 100 ng/mL of mouse stem cell factor (SCF), 10 ng/mL of mouse interleukin-3 (IL-3), 25 ng/mL of human thrombopoietin (TPO), 2 U/mL of human erythropoietin (EPO) and differing concentrations of the p18SMI compound. Cells were cultured 14 days for in vitro colony formation and colonies were then cytospined and analyzed by flow cytometry to test the subpopulation of cultured cells. Neutrophils (n), macrophages (m), erythroblasts (E) or megakaryocytes (M) were identified by the cell marker of Gr-1, Mac-1, Ter-119 and CD41 using flow cytometry. The wells from each group that generated all lineages (nmEM) were counted and the ratio to the control group (DMSO) was calculated.
Single CD34^-LKS cells from C57BL/6 mice were individually deposited into each well of a 96-well plate along with 100 μL of serum free medium (Gibco) containing 100 ng/mL of mouse SCF, 10 ng/mL of mouse IL-3, 25 ng/mL of human TPO, 2 U/mL of human EPO and p18SMI compounds (different dilutions). Cells were cultured in a 37 °C, 5% CO2 incubator for 14 days for ex vivo colony formation. Colonies were then cytospined and analyzed using flow cytometry. Neutrophils (n), macrophages (m), erythroblasts (E) or megakaryocytes (M) were identified based on their cell surface maker, Gr-1, Mac-1, Ter119 and CD41. Cells were measured on an FACS analyzer (FACSArray, BD Biosciences). […] The wells from each group that generated all lineages (nmEM) were counted. The ratio of p18SMI compound treatment group to the control group (DMSO-treated) was calculated and fitted to a curve to calculate the ED50 value using GraphPad Prism v6.0.

[2] = tested on: human cord blood CD34+ cells (CD34+CD49f+ cells); assay: human cord blood CD34+ cell ex vivo culture and screen; type: cell-based
Description: Based on our study of murine HSCs, we further tested whether these p18SMIs could expand human cord blood CD34^+ cells in ex vivo culture. […] We cultured human cord blood CD34^+ cells for 7 days in HSCs expansion media in the presence of 200 nM of p18SMIs, and then analyzed the percentage and absolute number of CD34^+CD49f^+ cells by flow cytometry. We screened 40 p18SMIs, of which14 compounds could increase the number of CD34^+CD49f^+ cells compared with the control group (Fig. S6). […] Then we conducted a concentration gradient assay on top three p18SMIs with ED50 less than 10 nM (compounds 22, 40 and 41). […] Only in specific doses could they show their expansion effect on human HSCs (Fig. 4B).
Human cord blood samples were collected from consenting donors according to ethically approved procedures at Tianjin Central Hospital of Gynecology Obstetrics (Tianjin, China), under a protocol approved by the Ethical Committee on Medical Research at the Institute of Hematology. Human CD34^+ cord blood cells were isolated using human CD34 MicroBead Kit (MiltenyiBiotec) according to the manufacturer’s protocol after settling red cells with HES and red cells lysis with ACK Lysis Buffer.
Human CD34^+ cells were cultured in expansion medium consisting of StemSpan SFEM (StemCell Technologies) supplemented with 100 ng/mL human stem cell factor (SCF, PeproTech), 50 ng/mL human thrombopoietin (TPO, PeproTech), 100 ng/mL human FMS-like trysine kinase 3 ligand (Flt3L, PeproTech). Human CD34^+ cells were resuspended in expansion medium (5 × 10^4 cells/mL) before being aliquoted in 96-well plates (Costar, Corning Incorporated). Compounds, all with a final concentration of 200 nM, were dissolved in DMSO and added immediately in cell suspension after plating. The final concentration of DMSO in the control group was the same as in the compounds-treated group. Cells were cultured at 37 °C in 5% CO2. Based on the results of primary screening upon human cells and the results of ED50, we chose three compounds for further experiments. The expansion medium was changed to StemSpan SFEM (StemCell Technologies) supplemented with 100 ng/mL human stem cell factor (SCF, PeproTech), 100 ng/mL human thrombopoietin (TPO, PeproTech), 100 ng/mL human FMS-like trysine kinase 3 ligand (Flt3L, PeproTech) and 100 ng/mL human interleukin-6 (IL-6, PeproTech) for better expansion effect. The incubation condition was consistent with before.
Phenotypes analysis of cultured cells was performed on a BD FACS Array (Becton Dickinson Biosciences) using a combination of the following antibodies: APC anti-CD34 (BD Biosciences), PE anti-CD49f (BD Biosciences). Stained cells were washed once with PBS and then measured and analyzed on an FACS analyzer (FACSArray, BD Biosciences).

[3] = tested on: LT-HSCs; assay: dependence of HSC expansion on CDK4/6 versus CDK2 (co-treatment with CDK inhibitors); type: cell-based, mouse
From the text: To assess a direct role for p18-CDK6 signaling in HSCs expansion induced by compound 40, we used the CDK4/6-specific inhibitor PD0332991 to block CDK6 activation. As a control, we blocked CDK2 with SNS032, a CDK2 selective inhibitor. […] So here we wanted to explore whether p18SMI compound’s HSCs expansion effect was abrogated by CDK4/6 inhibitor or CDK2 inhibitor.

For `O=C([O-])c1ccc(S(=O)(=O)NC2CCCCC2)cc1.[Na+]` [Compound 40, sodium 4-(N-cyclohexylsulfamoyl)benzoate], which “increase of nmEM colonies as compared to the control group” value [1] is on record?
The value was 3.16 fold.

What about the “increase in the absolute number of CD34+CD49f+ cells” value ([2]; 200 nM, 7 days in HSCs expansion media, versus control group) of the same molecule?
The value was over 30%.

What about the “expansion of human HSCs in concentration gradient assay” value ([2]; dose response, Fig. 4B) of the same molecule?
Its value is “concentration related”.

And the “number of LT-HSCs” value ([3]; in the PD0332991-treated group (CDK4/6-specific inhibitor))?
Its value is “failed to increase”.

What about the “number of LT-HSCs” value ([3]; in the SNS032-treated group (CDK2 selective inhibitor)) of the same molecule?
Its value is “still enhanced”.
